Experimental data published in publication PMC2810227, “3-O-Methylfunicone, a Selective Inhibitor of Mammalian Y-Family DNA Polymerases from an Australian Sea Salt Fungal Strain” (Marine Drugs, 2009).

Experiments:
[1] = biological target: T1, Klenow fragment of E. coli pol I (Escherichia coli, UniProt P00582); experiment: DNA polymerase assay, Klenow fragment; type: biochemical; settings: 100 μM
T1 construct: the Klenow fragment of pol I from E. coli; purchased Worthington Biochemical Corp. (Freehold, NJ, USA)
T1 sequence (P00582 324-928): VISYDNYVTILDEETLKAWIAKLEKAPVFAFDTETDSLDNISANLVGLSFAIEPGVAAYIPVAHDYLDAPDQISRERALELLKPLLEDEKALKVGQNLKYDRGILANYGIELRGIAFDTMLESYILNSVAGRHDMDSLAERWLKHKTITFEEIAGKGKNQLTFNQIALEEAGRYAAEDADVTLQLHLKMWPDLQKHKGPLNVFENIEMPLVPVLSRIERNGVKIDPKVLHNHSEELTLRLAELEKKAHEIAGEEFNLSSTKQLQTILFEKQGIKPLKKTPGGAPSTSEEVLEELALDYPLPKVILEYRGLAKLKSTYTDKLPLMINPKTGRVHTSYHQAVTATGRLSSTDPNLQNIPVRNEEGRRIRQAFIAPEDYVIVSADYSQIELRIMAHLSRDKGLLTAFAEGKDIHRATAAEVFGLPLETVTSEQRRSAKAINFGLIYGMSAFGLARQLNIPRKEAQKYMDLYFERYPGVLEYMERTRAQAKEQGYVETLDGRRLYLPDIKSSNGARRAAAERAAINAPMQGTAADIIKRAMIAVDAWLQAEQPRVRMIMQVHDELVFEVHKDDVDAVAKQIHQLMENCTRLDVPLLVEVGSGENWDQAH
Excerpt: (§1) Pol α was purified from calf thymus by immuno-affinity column chromatography, as described by Tamai et al.. Recombinant rat pol β was purified from E. coli JMpβ5, as described by Date et al.. The human pol γ catalytic gene was cloned into pFastBac. Histidine-tagged enzyme was expressed using the BAC-TO-BAC HT Baculovirus Expression System according to the supplier’s manual (Life Technologies, MD, USA) and purified using ProBoundresin (Invitrogen Japan, Tokyo, Japan). Human pols δ and ɛ were purified by nuclear fractionation of human peripheral blood cancer cells (Molt-4) using the second subunit of pols δ and ɛ-conjugated affinity column chromatography, respectively. A truncated form of human pol η (residues 1–511) tagged with His6 at its C-terminal was expressed in E. coli cells and purified as described by Kusumoto et al.. A recombinant mouse pol ι tagged with His6 at its C-terminal was expressed and purified by Ni-NTA column chromatography as described elsewhere (Masutani et al., in preparation). […]
(§2) The compounds were dissolved in distilled dimethyl sulfoxide (DMSO) at various concentrations and sonicated for 30 sec. […] Activity without the inhibitor was considered 100%, and the remaining activity at each concentration of the inhibitor was determined relative to this value. […]

fruit fly pol α = biological target: T2, fruit fly pol α (Drosophila melanogaster, UniProt P26019); experiment: DNA polymerase assay, insect pol α; type: biochemical; settings: 100 μM
T2 construct: purified from early embryos of Drosophila melanogaster; from tissue; host or cells: early embryos of Drosophila melanogaster
T2 sequence (P26019 whole entry): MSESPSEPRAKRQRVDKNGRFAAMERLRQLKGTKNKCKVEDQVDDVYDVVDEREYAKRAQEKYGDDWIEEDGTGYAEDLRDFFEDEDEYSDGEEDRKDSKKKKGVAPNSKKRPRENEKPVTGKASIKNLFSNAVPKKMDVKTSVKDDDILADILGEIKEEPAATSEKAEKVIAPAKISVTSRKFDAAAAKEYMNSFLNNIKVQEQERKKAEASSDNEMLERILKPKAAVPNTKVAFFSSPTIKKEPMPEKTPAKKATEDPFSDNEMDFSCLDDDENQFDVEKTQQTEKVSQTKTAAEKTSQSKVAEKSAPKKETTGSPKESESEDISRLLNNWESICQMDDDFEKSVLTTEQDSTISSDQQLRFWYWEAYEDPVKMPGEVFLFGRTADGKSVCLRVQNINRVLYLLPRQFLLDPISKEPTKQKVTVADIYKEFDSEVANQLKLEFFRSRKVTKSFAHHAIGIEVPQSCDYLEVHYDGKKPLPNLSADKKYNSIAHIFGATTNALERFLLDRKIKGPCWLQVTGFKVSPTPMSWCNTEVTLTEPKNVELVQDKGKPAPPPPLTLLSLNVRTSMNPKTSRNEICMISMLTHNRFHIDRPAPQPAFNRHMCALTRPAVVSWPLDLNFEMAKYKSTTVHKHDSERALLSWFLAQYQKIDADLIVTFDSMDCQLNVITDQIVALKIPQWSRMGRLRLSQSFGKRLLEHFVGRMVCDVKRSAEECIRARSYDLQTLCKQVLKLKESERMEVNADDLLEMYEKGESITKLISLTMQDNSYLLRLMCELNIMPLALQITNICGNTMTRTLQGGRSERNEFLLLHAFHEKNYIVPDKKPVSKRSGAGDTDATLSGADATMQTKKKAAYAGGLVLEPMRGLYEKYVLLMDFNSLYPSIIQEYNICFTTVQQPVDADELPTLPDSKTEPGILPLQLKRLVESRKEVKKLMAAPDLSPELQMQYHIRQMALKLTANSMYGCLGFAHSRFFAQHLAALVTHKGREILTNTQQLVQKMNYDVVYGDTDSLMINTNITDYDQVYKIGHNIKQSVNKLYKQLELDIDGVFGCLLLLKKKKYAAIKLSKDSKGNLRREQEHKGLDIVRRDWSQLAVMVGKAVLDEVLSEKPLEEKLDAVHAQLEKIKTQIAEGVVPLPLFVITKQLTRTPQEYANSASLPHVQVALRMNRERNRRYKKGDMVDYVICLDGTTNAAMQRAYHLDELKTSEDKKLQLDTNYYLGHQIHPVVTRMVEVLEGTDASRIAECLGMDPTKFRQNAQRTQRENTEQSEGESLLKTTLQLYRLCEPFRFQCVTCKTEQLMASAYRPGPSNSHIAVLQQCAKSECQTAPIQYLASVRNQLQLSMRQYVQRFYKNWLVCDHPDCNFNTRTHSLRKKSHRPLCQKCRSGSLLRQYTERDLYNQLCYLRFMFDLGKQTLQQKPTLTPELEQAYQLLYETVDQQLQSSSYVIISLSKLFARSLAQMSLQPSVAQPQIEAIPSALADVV
T2 sequence (Q9VB62 whole entry partner): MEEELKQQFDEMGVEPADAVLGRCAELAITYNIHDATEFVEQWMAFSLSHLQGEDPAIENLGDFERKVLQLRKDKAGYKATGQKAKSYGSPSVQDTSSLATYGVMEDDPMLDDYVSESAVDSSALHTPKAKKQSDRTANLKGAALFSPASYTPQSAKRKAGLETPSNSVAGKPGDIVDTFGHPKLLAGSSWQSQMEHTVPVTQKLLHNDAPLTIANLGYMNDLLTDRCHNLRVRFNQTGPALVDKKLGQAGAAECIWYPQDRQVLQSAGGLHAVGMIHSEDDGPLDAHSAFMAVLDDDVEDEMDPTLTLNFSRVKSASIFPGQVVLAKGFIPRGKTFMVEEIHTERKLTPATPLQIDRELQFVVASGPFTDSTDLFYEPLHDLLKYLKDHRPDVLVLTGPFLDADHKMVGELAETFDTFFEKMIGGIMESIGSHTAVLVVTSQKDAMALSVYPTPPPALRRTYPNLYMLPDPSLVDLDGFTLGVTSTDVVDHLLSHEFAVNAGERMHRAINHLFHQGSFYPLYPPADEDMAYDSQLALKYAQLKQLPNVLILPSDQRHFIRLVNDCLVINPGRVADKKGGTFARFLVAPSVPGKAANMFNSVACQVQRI
T2 sequence (Q9VPH2 whole entry partner): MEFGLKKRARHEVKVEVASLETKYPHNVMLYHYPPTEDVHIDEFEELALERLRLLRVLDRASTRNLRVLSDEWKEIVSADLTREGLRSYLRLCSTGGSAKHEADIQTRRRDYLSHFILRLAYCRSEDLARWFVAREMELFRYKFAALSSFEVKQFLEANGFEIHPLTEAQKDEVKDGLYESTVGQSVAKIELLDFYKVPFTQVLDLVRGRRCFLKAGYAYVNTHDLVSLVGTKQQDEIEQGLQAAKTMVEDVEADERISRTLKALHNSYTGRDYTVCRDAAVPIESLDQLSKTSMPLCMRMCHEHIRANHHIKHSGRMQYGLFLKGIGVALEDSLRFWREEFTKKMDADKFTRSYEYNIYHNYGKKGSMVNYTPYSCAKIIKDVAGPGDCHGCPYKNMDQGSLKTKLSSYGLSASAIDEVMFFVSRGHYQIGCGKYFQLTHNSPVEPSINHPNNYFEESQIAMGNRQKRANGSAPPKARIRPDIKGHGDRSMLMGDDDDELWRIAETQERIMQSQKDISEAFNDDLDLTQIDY
T2 sequence (Q24317 whole entry partner): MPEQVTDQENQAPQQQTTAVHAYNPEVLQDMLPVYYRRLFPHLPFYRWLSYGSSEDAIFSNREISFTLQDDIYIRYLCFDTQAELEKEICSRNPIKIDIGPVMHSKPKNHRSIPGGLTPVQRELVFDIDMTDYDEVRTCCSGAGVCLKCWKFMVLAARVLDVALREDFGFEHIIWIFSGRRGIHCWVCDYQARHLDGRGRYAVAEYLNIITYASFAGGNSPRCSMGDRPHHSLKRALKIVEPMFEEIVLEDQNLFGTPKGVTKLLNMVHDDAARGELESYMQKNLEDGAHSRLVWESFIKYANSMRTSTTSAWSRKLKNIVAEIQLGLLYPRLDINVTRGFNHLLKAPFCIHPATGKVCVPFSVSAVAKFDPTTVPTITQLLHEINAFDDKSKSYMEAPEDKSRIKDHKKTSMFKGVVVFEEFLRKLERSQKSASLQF
Excerpt: as §1, §2

calf thymus TdT = biological target: T3, calf thymus TdT (Bos taurus, UniProt P06526); experiment: DNA polymerase assay, TdT; type: biochemical; settings: 100 μM
T3 construct: purchased Stratagene Cloning Systems (La Jolla, CA, USA)
T3 sequence (P06526 whole entry): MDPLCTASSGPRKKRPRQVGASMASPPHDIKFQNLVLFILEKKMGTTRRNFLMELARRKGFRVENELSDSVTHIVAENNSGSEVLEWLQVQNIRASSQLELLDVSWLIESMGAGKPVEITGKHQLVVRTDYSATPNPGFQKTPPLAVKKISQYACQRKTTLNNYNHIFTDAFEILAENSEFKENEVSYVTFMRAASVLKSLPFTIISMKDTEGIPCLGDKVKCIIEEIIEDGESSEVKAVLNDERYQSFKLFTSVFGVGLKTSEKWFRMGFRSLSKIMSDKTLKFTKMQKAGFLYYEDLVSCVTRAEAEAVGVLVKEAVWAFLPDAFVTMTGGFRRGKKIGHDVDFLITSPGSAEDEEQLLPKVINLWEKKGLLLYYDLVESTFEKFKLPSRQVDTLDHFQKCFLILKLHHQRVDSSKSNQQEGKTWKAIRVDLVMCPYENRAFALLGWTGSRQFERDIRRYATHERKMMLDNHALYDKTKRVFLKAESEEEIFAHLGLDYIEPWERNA
Excerpt: as §1, §2

bovine DNase I = biological target: T4, bovine DNase I (Bos taurus, UniProt P00639); experiment: DNase I assay; type: biochemical; settings: 100 μM
T4 construct: Calf thymus TdT and bovine pancreas DNase I were obtained from Stratagene Cloning Systems; purchased Stratagene Cloning Systems (La Jolla, CA, USA); host or cells: bovine pancreas (tissue)
T4 sequence (P00639 23-282): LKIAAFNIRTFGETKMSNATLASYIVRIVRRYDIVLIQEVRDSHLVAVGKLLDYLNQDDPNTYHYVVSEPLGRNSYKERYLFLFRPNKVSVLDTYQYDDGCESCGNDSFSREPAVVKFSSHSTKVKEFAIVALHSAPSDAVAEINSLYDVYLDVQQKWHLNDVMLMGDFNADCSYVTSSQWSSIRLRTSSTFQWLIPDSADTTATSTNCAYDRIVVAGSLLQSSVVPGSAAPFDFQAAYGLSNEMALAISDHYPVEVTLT
Excerpt: as §1, with “al..” for “al.. A recombinant mouse pol ι tagged with His6 at its C-terminal was expressed and purified by Ni-NTA column chromatography as described elsewhere (Masutani et al., in preparation).”
The activities of calf primase of pol α, human telomerase, T7 RNA polymerase, mouse IMP dehydrogenase, human DNA topoisomerases I and II, T4 polynucleotide kinase and bovine DNase I were measured in standard assays according to the manufacturer’s specifications, as described by Tamiya-Koizumi et al., Oda et al., Nakayama et al., Mizushina et al., Ishimaru et al., Soltis et al. and Lu et al., respectively.

[2] = test system: HeLa (cervix carcinoma cells); experiment: Cancer cell growth, MTT assay, HeLa; type: cell-based, human; settings: 24 h
Procedure: Figure 5. (A) Human cancer cell growth inhibition dose-response curves of 3-O-methyl-funicone (1). Various concentrations (0 to 150 μM) of compound 1 were incubated with human colon carcinoma (HCT116) cells (circle) and human cervix carcinoma (HeLa) cells (square) for 24 h. Rate of cell growth was determined by MTT assay as described in the Experimental section. Data are shown as the means ± SEM of five independent experiments. (B) Clonogenic survival of UV-treated HeLa cells by compound 1. Various concentrations (0 to 100 μM) of compound 1 were incubated with 10 J/m^2 UV-treated (closed circle) or untreated (open circle) HeLa cells. After 7 days, the number of colonies in each treatment group was counted. Values are the means ± SEM of two independent experiments.
Human colon carcinoma cell line, HCT116, was a kind gift from Dr. Bert Vogelstein (Johns Hopkins University, Baltimore, […], USA). Human cervix carcinoma cell line, HeLa, was obtained from Health Science Research Resources Bank (Osaka, Japan). The cells were maintained in McCoy’s 5A medium supplemented with 10% FBS, sodium bicarbonate (2 g/L) and streptomycin (100 μg/mL). The cells were cultured at 37 °C in standard medium in a humidified atmosphere of 5% CO2-95% air. […] After incubation for 24 h, the survival rate was determined by MTT (3-(4,5-dimethylthiazol-2-yl)-2,5-diphenyl tetrazolium bromide) assay.

Taq pol = biological target: T5, Taq pol (Thermus aquaticus, UniProt P19821); experiment: DNA polymerase assay, Taq pol; type: biochemical; settings: 100 μM; 74 °C
T5 construct: purchased Takara Bio (Tokyo, Japan)
Excerpt: as §1, §2

C/C=C/c1occ(C(=O)c2c(OC)cc(OC)cc2C(=O)OC)c(=O)c1OC [compound 1, 3-O-methylfunicone]
effect on Klenow fragment of E. coli pol I activity [1]: no effect | effect on fruit fly pol α activity (fruit fly pol α): hardly influenced | effect on TdT activity (calf thymus TdT): hardly influenced | effect on bovine DNase I activity (bovine DNase I): did not influence | LD50, cell growth [2]: 63.3 µM | effect on Taq pol activity (Taq pol): no effect
